Reference: PubChem BioAssay AID248 (DTP/NCI, 2004)
Values joined by “and” are separate entries in the source; they are usually repeats but may differ in a detail not shown here. Identical values can stand only once. Toxic doses and inconclusive results are not listed.

Tested on: L1210 leukemia ip in BDF1 mice, survival T/C
Assay: NCI In Vivo Anticancer Drug Screen. Data for tumor model L1210 Leukemia (intraperitoneal) in B6D2F1 (BDF1) mice
Details: endpoint: mean survival time, higher = longer survival
In short: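 Antitumor effect is assessed in tumor-bearing animals. Survival in the compound arm is compared with a vehicle-dosed control arm and expressed as their quotient.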

[1] = dose: 50.0 mg/kg/injection, schedule: Q01DX001 (ip), vehicle: other
[2] = dose: 100.0 mg/kg/injection, schedule: Q04DX003 (ip), vehicle: saline
[3] = dose: 100.0 mg/kg/injection, schedule: Q01DX009 (ip), vehicle: saline with Tween-80
[4] = dose: 200.0 mg/kg/injection, schedule: Q01DX009 (ip), vehicle: saline with Tween-80
[5] = dose: 400.0 mg/kg/injection, schedule: Q01DX009 (ip), vehicle: saline with Tween-80
[6] = dose: 100.0 mg/kg/injection, schedule: Q04DX003 (ip), vehicle: saline with Tween-80
[7] = dose: 100.0 mg/kg/injection, schedule: Q04DX002 (ip), vehicle: saline with Tween-80
[8] = dose: 200.0 mg/kg/injection, schedule: Q04DX002 (ip), vehicle: saline with Tween-80
[9] = dose: 100.0 mg/kg/injection, schedule: Q01DX001 (ip), vehicle: saline
[10] = dose: 200.0 mg/kg/injection, schedule: Q01DX001 (ip), vehicle: saline

O=NN(CCF)C(=O)NC1CCC(NC(=O)N(CCF)N=O)CC1 (centres undefined)
T/C (dose: 16.0 mg/kg/injection, schedule: Q01DX001 (ip), vehicle: carboxymethylcellulose (CMC)): 151 % of control | T/C (dose: 30.0 mg/kg/injection, schedule: Q01DX001 (ip), vehicle: other): 190 % of control | T/C (dose: 31.0 mg/kg/injection, schedule: Q01DX001 (ip), vehicle: carboxymethylcellulose (CMC)): 176 % of control | T/C [1]: 220 % of control | T/C (dose: 60.0 mg/kg/injection, schedule: Q01DX001 (ip), vehicle: other): 294 % of control | T/C (dose: 62.0 mg/kg/injection, schedule: Q01DX001 (ip), vehicle: carboxymethylcellulose (CMC)): 336 % of control | T/C (dose: 80.0 mg/kg/injection, schedule: Q01DX001 (ip), vehicle: other): 300 % of control | T/C (dose: 120.0 mg/kg/injection, schedule: Q01DX001 (ip), vehicle: other): 315 % of control and 340 % of control | T/C (dose: 125.0 mg/kg/injection, schedule: Q01DX001 (ip), vehicle: carboxymethylcellulose (CMC)): 357 % of control | T/C (dose: 180.0 mg/kg/injection, schedule: Q01DX001 (ip), vehicle: other): 340 % of control | T/C (dose: 240.0 mg/kg/injection, schedule: Q01DX001 (ip), vehicle: other): 298 % of control | T/C (dose: 250.0 mg/kg/injection, schedule: Q01DX001 (ip), vehicle: carboxymethylcellulose (CMC)): 357 % of control | T/C (dose: 375.0 mg/kg/injection, schedule: Q01DX001 (ip), vehicle: carboxymethylcellulose (CMC)): 276 % of control | T/C (dose: 500.0 mg/kg/injection, schedule: Q01DX001 (ip), vehicle: carboxymethylcellulose (CMC)): 271 % of control | T/C (dose: 750.0 mg/kg/injection, schedule: Q01DX001 (ip), vehicle: carboxymethylcellulose (CMC)): 175 % of control | T/C (dose: 1000.0 mg/kg/injection, schedule: Q01DX001 (ip), vehicle: carboxymethylcellulose (CMC)): 175 % of control

N#CC(=C=[N-])[n+]1ccccc1
T/C (dose: 6.25 mg/kg/injection, schedule: Q01DX009 (ip), vehicle: saline): 100 % of control | T/C (dose: 12.5 mg/kg/injection, schedule: Q01DX009 (ip), vehicle: saline): 100 % of control | T/C (dose: 18.8 mg/kg/injection, schedule: Q01DX001 (ip), vehicle: saline): 108 % of control | T/C (dose: 37.5 mg/kg/injection, schedule: Q01DX001 (ip), vehicle: saline): 100 % of control

COc1ccc(N2CCNCC2)cc1
T/C (dose: 5.0 mg/kg/injection, schedule: Q01DX001 (ip), vehicle: saline): 103 % of control | T/C (dose: 10.0 mg/kg/injection, schedule: Q01DX001 (ip), vehicle: saline): 103 % of control | T/C (dose: 20.0 mg/kg/injection, schedule: Q01DX001 (ip), vehicle: saline): 97 % of control | T/C (dose: 40.0 mg/kg/injection, schedule: Q01DX001 (ip), vehicle: saline): 105 % of control

CCCCCCCCCCCCCCCCCCCCC(C(=O)O)S(=O)(=O)O (centres undefined)
T/C [2]: 95 % of control | T/C (dose: 400.0 mg/kg/injection, schedule: Q04DX003 (ip), vehicle: saline): 96 % of control

O=C1OC(=O)c2ccc([N+](=O)[O-])c3c([N+](=O)[O-])ccc1c23
T/C [3]: 88 % of control | T/C [4]: 95 % of control | T/C [5]: 91 % of control

CCCCCCCC(=O)Nc1cccc(C)c1C
T/C [6]: 101 % of control | T/C (dose: 200.0 mg/kg/injection, schedule: Q04DX003 (ip), vehicle: saline with Tween-80): 87 % of control | T/C (dose: 400.0 mg/kg/injection, schedule: Q04DX003 (ip), vehicle: saline with Tween-80): 101 % of control

C=C(C)C1(CCCCC)C(=O)NC(=S)NC1=O
T/C (dose: 75.0 mg/kg/injection, schedule: Q01DX001 (ip), vehicle: saline): 100 % of control | T/C (dose: 150.0 mg/kg/injection, schedule: Q01DX001 (ip), vehicle: saline): 102 % of control | T/C (dose: 300.0 mg/kg/injection, schedule: Q01DX001 (ip), vehicle: saline): 95 % of control

COc1cccc(NC(=O)NCCCl)c1
T/C (dose: 12.5 mg/kg/injection, schedule: Q01DX009 (ip), vehicle: saline with Tween-80): 96 % of control | T/C (dose: 25.0 mg/kg/injection, schedule: Q01DX009 (ip), vehicle: saline with Tween-80): 86 % of control | T/C (dose: 50.0 mg/kg/injection, schedule: Q01DX009 (ip), vehicle: saline with Tween-80): 90 % of control

N#CSc1nc2ccccc2s1
T/C (dose: 6.0 mg/kg/injection, schedule: Q01DX001 (ip), vehicle: saline): 88 % of control | T/C (dose: 12.0 mg/kg/injection, schedule: Q01DX001 (ip), vehicle: saline): 89 % of control | T/C (dose: 25.0 mg/kg/injection, schedule: Q01DX001 (ip), vehicle: saline): 98 % of control | T/C (dose: 25.0 mg/kg/injection, schedule: Q04DX003 (ip), vehicle: saline with Tween-80): 92 % of control | T/C (dose: 50.0 mg/kg/injection, schedule: Q04DX003 (ip), vehicle: saline with Tween-80): 91 % of control | T/C [6]: 96 % of control

Cn1c(=O)c2c(nc(C3CC3)n2C)n(C)c1=O
T/C [1]: 112 % of control | T/C (dose: 100.0 mg/kg/injection, schedule: Q01DX001 (ip), vehicle: other): 95 % of control | T/C (dose: 200.0 mg/kg/injection, schedule: Q01DX001 (ip), vehicle: other): 95 % of control

CC1CC(C)NC(=S)N1 (centres undefined)
T/C (dose: 50.0 mg/kg/injection, schedule: Q04DX002 (ip), vehicle: saline with Tween-80): 98 % of control | T/C [7]: 102 % of control | T/C [8]: 98 % of control

CNc1ccn(C2CCCO2)c(=O)n1 (centres undefined)
T/C [9]: 104 % of control | T/C [10]: 104 % of control | T/C (dose: 400.0 mg/kg/injection, schedule: Q01DX001 (ip), vehicle: saline): 104 % of control

N=C(N)c1ccc(-n2cc3cc(C(=N)N)ccc3n2)cc1
T/C (dose: 6.25 mg/kg/injection, schedule: Q04DX003 (ip), vehicle: saline): 96 % of control and 110 % of control | T/C (dose: 12.5 mg/kg/injection, schedule: Q04DX003 (ip), vehicle: saline): 100 % of control | T/C (dose: 25.0 mg/kg/injection, schedule: Q04DX003 (ip), vehicle: saline): 106 % of control and 91 % of control

CCCN(CCC)CCCN(CCC)CCCCN(CCC)CCCN(CCC)CCC
T/C [9]: 98 % of control

CCOC(=O)C1(C(=O)OCC)C(C)CC(O)N1C(=O)c1ccccc1[N+](=O)[O-] (centres undefined)
T/C (dose: 25.0 mg/kg/injection, schedule: Q04DX003 (ip), vehicle: Klucel (hydroxypropylcellulose) (HPC)): 100 % of control | T/C (dose: 50.0 mg/kg/injection, schedule: Q04DX003 (ip), vehicle: Klucel (hydroxypropylcellulose) (HPC)): 91 % of control | T/C (dose: 100.0 mg/kg/injection, schedule: Q04DX003 (ip), vehicle: Klucel (hydroxypropylcellulose) (HPC)): 92 % of control

CCOC(=O)C(C#N)c1ccccc1 (centres undefined)
T/C (dose: 50.0 mg/kg/injection, schedule: Q01DX001 (ip), vehicle: saline): 96 % of control | T/C [9]: 100 % of control | T/C [10]: 100 % of control

CN(N=O)C(=O)N(C)C(=O)N(C)N=O
T/C (dose: 6.25 mg/kg/injection, schedule: Q01DX Z (ip), vehicle: carboxymethylcellulose (CMC)): 104 % of control | T/C (dose: 12.5 mg/kg/injection, schedule: Q01DX Z (ip), vehicle: carboxymethylcellulose (CMC)): 112 % of control | T/C (dose: 25.0 mg/kg/injection, schedule: Q01DX Z (ip), vehicle: carboxymethylcellulose (CMC)): 108 % of control | T/C (dose: 50.0 mg/kg/injection, schedule: Q01DX Z (ip), vehicle: carboxymethylcellulose (CMC)): 92 % of control

CCCCOC(=O)c1ccc(OC(=O)Nc2ccc(OC)cc2Cl)cc1
T/C (dose: 100.0 mg/kg/injection, schedule: Q04DX002 (ip), vehicle: saline): 110 % of control | T/C (dose: 200.0 mg/kg/injection, schedule: Q04DX002 (ip), vehicle: saline): 104 % of control | T/C (dose: 400.0 mg/kg/injection, schedule: Q04DX002 (ip), vehicle: saline): 100 % of control

Cc1cc(C)c(C(=O)c2ccccc2C(=O)OC(=O)c2ccccc2C(=O)c2c(C)cc(C)cc2C)c(C)c1
T/C [7]: 88 % of control

CC1NC1(c1ccccc1)[n+]1ccccc1 (centres undefined)
T/C (dose: 50.0 mg/kg/injection, schedule: Q01DX009 (ip), vehicle: saline): 97 % of control | T/C (dose: 100.0 mg/kg/injection, schedule: Q01DX009 (ip), vehicle: saline): 95 % of control | T/C [2]: 105 % of control | T/C (dose: 200.0 mg/kg/injection, schedule: Q04DX003 (ip), vehicle: saline): 105 % of control

CNC(=O)OCCOc1ccccc1
T/C (dose: 100.0 mg/kg/injection, schedule: Q01DX001 (ip), vehicle: saline with Tween-80): 109 % of control | T/C [3]: 105 % of control and 116 % of control | T/C [7]: 97 % of control and 89 % of control | T/C (dose: 200.0 mg/kg/injection, schedule: Q01DX001 (ip), vehicle: saline with Tween-80): 108 % of control | T/C [4]: 96 % of control and 101 % of control | T/C [8]: 94 % of control and 90 % of control | T/C (dose: 400.0 mg/kg/injection, schedule: Q01DX001 (ip), vehicle: saline with Tween-80): 111 % of control | T/C [5]: 108 % of control and 110 % of control | T/C (dose: 400.0 mg/kg/injection, schedule: Q04DX002 (ip), vehicle: saline with Tween-80): 119 % of control and 87 % of control
